From US9204630B2, “Capsule formulation” (Syngenta Participations AG, priority 2005, dated 2015)

Test: Screen of EC formulations for substances that photoprotect emamectin benzoate
Format: physicochemical
Set-up: key: #1 represents no improvement; #3 represents those photoprotectants that conferred a significant improvement in photostability
Conditions: performance of the photostabiliser relative to the non-photostabilised EC; 2% w/w emamectin benzoate EC, photoprotectant to insecticide 1:1; deposits on glass irradiated in Suntest, HPLC-MS
Description: The photoprotectant to be screened was either dissolved or dispersed in a simple Solvesso 200 based EC formulation containing 2% w/w emamectin benzoate, 10% w/w Soprophor BSU and 3% w/w phenyl sulfonate calx. The weight ratio of photoprotectant to insecticide was 1:1.
The ECs were diluted in water to the typical field application rate of emamectin benzoate, 10 g ai/ha at a spray volume of 200 l/ha. 2 μl droplets were applied to clean glass microscope slides and allowed to dry prior to being irradiated in an Atlas XLS+ Suntest artificial sunlight simulator, which employs a filtered xenon light source providing a spectral energy distribution similar to natural outdoor exposure. After irradiation, deposits were removed from the glass slides by a solvent wash and quantified by high performance liquid chromatography (HPLC) with mass-spectrometric (MS) detection.

| Molecule | Screen Result |
| --- | --- |
| Cc1ccccc1N=Nc1c(O)ccc2ccccc12 [Example 1J, 1-(ortho-tolylazo)-2-naphthol] | 3 |
| Nc1c(S(=O)(=O)[O-])cc(Nc2ccccc2)c2c1C(=O)c1ccccc1C2=O.[Na+] [Example 1A, monosodium 1-amino-9,10-dihydro-9,10-dioxo-4-(phenylamino)-2-anthracenesulfonate] | 3 |
| Oc1ccc(N=Nc2ccc(N=Nc3ccccc3)c3ccccc23)cc1 [Example 1E, 4-[[4-(phenylazo)-1-naphthalenyl]azo]-phenol] | 3 |
| CC(C)(C)CC(C)(C)c1ccc([O-])c(Sc2cc(C(C)(C)CC(C)(C)C)ccc2[O-])c1.CCCCN.[Ni+2] [Example 1S, 2,2′-thiobis[4-t-octylphenolato]-beta-butylamine nickel (II)] | 3 |
| Oc1ccc2ccccc2c1N=Nc1ccc(N=Nc2ccccc2)cc1 [Example 1K] | 3 |
| Cc1ccccc1N=Nc1cc(C)c(N=Nc2c(O)ccc3ccccc23)cc1C [Example 1H, 1-[[2,5-dimethyl-4-[(2-methylphenol)azo]phenyl]azo]-2-naphthalenol] | 3 |
| Cc1cc(N=Nc2ccc(N=Nc3c(O)ccc4ccccc34)c(C)c2)ccc1O [Example 1O, 1-[[2-methyl-4-[(2-methylphenol)azo]phenyl]azo]-2-naphthalenol] | 3 |
| 1-[[4-[(dimethylphenyl)azo]dimethylphenyl]azo]-2-naphthalenol [Example 1I] | 3 |
| CCN(CCC#N)c1ccc(N=Nc2ccc([N+](=O)[O-])cc2)cc1 [Example 1F, 3-[ethyl[4-[(4-nitrophenyl)azo]phenyl]amino]-propanenitrile] | 3 |
| Nc1ccc(N=Nc2ccc([N+](=O)[O-])cc2)cc1 [Example 1G, 4-[(4-nitrophenyl)azo]-benzenamine] | 3 |
| Cc1cc(S(=O)(=O)[O-])ccc1N=Nc1c(O)ccc2ccccc12.[Na+] [Example 1C, monosodium 4-[(2-hydroxy-1-naphthalenyl)azo]-3-methyl-benzenesulfonate] | 3 |
| Oc1ccc2ccccc2c1N=Nc1ccccc1 [Example 1N, 1-(phenylazo)-2-naphthalenol] | 3 |
| CC1(C)Nc2cccc3c(N=Nc4ccc(N=Nc5ccccc5)c5ccccc45)ccc(c23)N1 [Example 1M, 2,3-dihydro-2,2-dimethyl-6-[[4-(phenylazo)-1-naphthalenyl]azo]-1H-perimidine] | 3 |
| COc1ccc(C=C(C(=O)OC2CC(C)(C)N(C)C(C)(C)C2)C(=O)OC2CC(C)(C)N(C)C(C)(C)C2)cc1 [Example 1R, propanedioic acid, [(4-methoxy-phenyl)-methylene]-, bis(1,2,2,6,6-pentamethyl-4-piperidinyl)ester] | 3 |
| O=[N+]([O-])c1ccc(N=Nc2ccc(Nc3ccccc3)cc2)cc1 [Example 1D, 4-[(4-nitrophenyl)azo]-N-phenyl-benzenamine] | 3 |
| CC(C)Nc1ccc(NC(C)C)c2c1C(=O)c1ccccc1C2=O [Example 1B, 1,4-bis[(1-methylethyl)amino]-9,10-anthracenedione] | 3 |
